Reference: US10716783B2, “Prolylhydroxylase/ATF4 inhibitors and methods of use for treating neural cell injury or death and conditions resulting therefrom” (CORNELL UNIVERSITY, priority 2013, dated 2020)
“Also recorded” adds a separate entry of the source. Like-named read-outs stand apart in the source and are kept apart here.

How the values were obtained:
recombinant HIF PHD2 = recombinant HIF PHD2 (Homo sapiens, UniProt Q9GZT9); assay: Recombinant HIF PHD2 hydroxylation of HIF peptide, non-denaturing mass spectrometry; assay type: biochemical
recombinant HIF PHD2, sequence (Q9GZT9 whole entry, the tested form may be a part): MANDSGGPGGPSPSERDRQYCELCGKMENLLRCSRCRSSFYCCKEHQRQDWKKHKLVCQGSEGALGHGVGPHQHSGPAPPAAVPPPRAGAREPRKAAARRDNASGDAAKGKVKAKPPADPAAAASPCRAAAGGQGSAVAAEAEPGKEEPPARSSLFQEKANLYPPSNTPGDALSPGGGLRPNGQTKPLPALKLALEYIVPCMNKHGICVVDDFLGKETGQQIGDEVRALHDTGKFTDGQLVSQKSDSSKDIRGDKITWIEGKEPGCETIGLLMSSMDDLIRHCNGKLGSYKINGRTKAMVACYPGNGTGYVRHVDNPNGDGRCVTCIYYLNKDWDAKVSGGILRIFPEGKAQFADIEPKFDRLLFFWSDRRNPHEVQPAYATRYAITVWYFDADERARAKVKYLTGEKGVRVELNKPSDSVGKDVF
Description: FIGS. 3A-3G. Validation of adaptoquin as a novel HIF PHD inhibitor. […] Under steady state conditions, activity of HIF PHD2 with its co-substrate 2-oxoglutarate involves two peaks that represent non-hydroxylated and hydroxylated peptide. The hydroxylated peptide disappears in the presence of HIF PHD2 inhibition by adaptoquin. […] The reporter contains the ODD domain of HIF-1 which confers HIF PHD regulated stability on it. It is expressed in all cells of the body, but is destabilized in the absence of HIF PHD inhibition and stabilized in its presence. Quantitative measurements confirm stability of the ODD-luc in brain, kidney and liver (FIGS. 3D and 3E.).
To verify that the changes in light in the brain reflect parenchymal changes in ODD-luciferase levels rather than increases in changes in skin or dural ODD-luciferase, ODD-luciferase activity was measured normalized to total protein in lysates from distinct brain regions using a luminometer.

ATF4 = ATF4 hydroxylation (ATF4 immunoprecipitation, hydroxyproline immunoblot); assay type: cell-based
[1] = system: immortalized hippocampal neuroblasts (HT22 cells); assay: Hemin-induced toxicity in hippocampal neuroblasts (MTT); assay type: cell-based
Description: FIGS. 1A-1L: Structurally diverse HIF PHD inhibitors stabilize HIF-1 and abrogate toxicity induced by hemin, a byproduct of blood breakdown, in cortical neurons hippocampal neuroblasts and striatal neuroblasts (not shown).
Secondary injury from ICH has been attributed to hemin, a breakdown product of hemoglobin (from lysed red blood cells). To investigate the mechanisms of hemin toxicity to neurons in vitro, this experiment exposed primary cortical neurons, immortalized hippocampal neuroblasts (HT22 cells), and immortalized striatal neuroblasts (Q7 cells) to hemin for 24 hours. As expected, a dose dependent loss in viability as measured by MTT reduction or LIVE/DEAD assay in all three cell types was observed. […] To examine whether iron-dependent HIF PHD enzymes can be modulated to protect neurons from hemin-induced toxicity, this experiment examined structurally diverse inhibitors of the HIF PHDs: desferoxamine, cyclopirox, and dihydroxybenzoic acid. […] To test this notion further using a chemical biological approach, the protective effects of cyclopirox, a HIF PHD inhibitor, and a cyclopirox analog with no PHD inhibitory activity but with similar metal binding affinity to cyclopirox were compared. As expected, only the cyclopirox analog with PHD inhibitory activity was neuroprotective. […]

primary cortical neurons = assay: Oxidative glutamate (homocysteate) toxicity in cortical neurons; assay type: cell-based, rat
Description: FIGS. 5A-5G. […] Because adaptoquin is a HIF PHD inhibitor that appears to work independent of HIF transcription factors, and because hemin induced death involves oxidative stress, the effect of adaptoquin on oxidative glutamate toxicity was examined. This form of toxicity is observed in primary cortical neurons from E17 rat embryos (2 DIV) and involves glutamate mediated inhibition of the amino acid cystine via its plasma membrane transporter. […] Accordingly, the optimal concentration of adaptoquin in protecting neurons was first determined and found to be about 1 micromolar. […] To determine the mechanism of adaptoquin, transcriptomic experiments were performed using non-protective and protective concentrations of drug harvesting RNA just prior to the time the cell's becoming insensitive to adaptoquin (16 hrs), as provided in FIG. 5C.
To probe the mechanism of adaptoquin-induced neuroprotection, the study moved its attention to a well established model of oxidative stress in neurons induced by glutamate. Like hemin induced toxicity, oxidative glutamate toxicity is abrogated by forced expression of GPX4 (Alim et al., unpublished observations). However, oxidative glutamate toxicity has a much longer window before cells are committed to die (eighteen hours), facilitating analysis of primary events involved in cell death and protection. A detailed dose response and therapeutic window study was performed with adaptoquin in mouse cortical neurons exposed to glutamate or the glutamate analog, homocysteate. […] To probe the mechanism of this potent, delayed protection, a microarray transcriptomics study was performed using RNA from neuronal cultures that had been exposed to glutamate (or HCA) for 16 hours with vehicle, as well as non-protective (100 nM) and protective doses of adaptoquin (1 μM). Protective, but […] doses of adaptoquin reduced expression of a host of genes induced by oxidative stress including Tribbles homolog 3, methylene tetrahydrofolate reductase, the Xc-transporter, and stanniocalcin-2 hormone glycoprotein.

[2] = system: intracerebral hemorrhage (autologous blood infusion); assay: Autologous blood infusion ICH in rats; assay type: in vivo
Protocol: FIGS. 4A-4N. Adaptoquin delivered post-injury reduces cell death and enhances functional recovery post injury in mice and rats. Adaptoquin's effects in mice are not associated with global shifts of iron out of the brain. FIG. 4A: Experimental design for schedule of delivery of adaptaquin post-ICH. 30 mg/kg was delivered post-injury and then daily for seven days during which behavioral analysis was done. Mice were sacrificed at day 7 for qPCR and Fluoro-jade staining. […] FIG. 4J: Protocol for adaptoquin treatment of rats with ICH. ICH is modeled by autologous blood infusion and not collagenase in these studies. Behavior is tracked by a single pellet reaching task out to 28 days, but the schedule of infusion is similar to what is used in mice-2 hrs post blood infusion and then daily out to seven days. Behavior is monitored before, from 9-11 days and from 25-28 days. […] FIG. 4L: Protocol for evaluating the total concentrations of iron and zinc in brain following ICH in vehicle and adaptoquin treated mice. FIGS. 4M, 4N: Pseudocolored sections of collagenase induced ICH in mice after 7 days. […] These studies are consistent with the notion that adaptoquin works by inhibiting a specific metalloenzyme rather than global movement of metal ions.
To determine whether adaptoquin could ameliorate outcomes using a distinct model of ICH in a distinct species, adaptoquin was tested it (30 mg/kg, intraperitoneal) in a model of autologous blood infusion in rats. Autologous blood infusion causes a narrower slit like lesion in the striatum than collagenase, but results in motor impairments out beyond 30 days. Adaptoquin (30 mg/kg) was administered two hours after autologous blood infusion and then daily for seven days.

primary neurons = assay: Death induced by forced ATF4 expression in primary neurons (MTT, LIVE/DEAD); assay type: cell-based; conditions: concentrations protective in the oxidative stress model
Description: FIGS. 6A-6I. […] Expression of ATF4 was forced into primary neurons, which induces death of these neurons by MTT assay (FIG. 6D) or LIVE/DEAD staining, Green is live, Red is dead (FIG. 6E).

## Oc1cccnc1NC(c1ccc(Cl)cc1)c1ccc2cccnc2c1O (centres unmarked) [adaptoquin]
Recombinant HIF PHD2
  Inhibition of recombinant HIF PHD2 activity (hydroxylation of HIF peptide): inhibit the ability of recombinant HIF prolyl hydroxylase 2 to hydroxylate an HIF peptide
Recombinant HIF PHD2; listed as Adpatoquin
  Inhibition of recombinant HIF PHD2 activity (hydroxylation of HIF peptide): inhibits activity of recombinant HIF PHD2
ATF4
  ATF4 hydroxylation: inhibits ATF4 hydroxylation
[1]
  Hemin-induced death / protection after HIF-1α or HIF-2α reduction (shRNA): prevents hemin induced death independent of HIF-1 and HIF-2
Primary cortical neurons; 0.1 micromolar (100 nM)
  Protection against oxidative death: non-protective
Primary cortical neurons; 1 micromolar
  Protection against oxidative death: complete protection
  Time after glutamate/homocysteate treatment at which the compound can still be added and protect: up to 16 hours
Primary cortical neurons; 1 micromolar, listed as adaptaquin
  Protection against oxidative death: protection is significant
Primary cortical neurons; oxidative glutamate toxicity
  Optimal concentration in protecting neurons: about 1 micromolar
[2]; 30 mg/kg i.p.
  Body weight: no significant changes
  Glucose levels: no significant changes
  Temperature: no significant changes
[2]; 30 mg/kg i.p. 2 h after blood infusion then daily for seven days, later time points
  Single pellet reaching task (percent correct): significant improvements in percent correct; also recorded: improves single pellet reaching
Primary neurons
  Death induced by oxidative stress and ATF4 forced expression: mitigates death induced by oxidative stress and ATF4 forced expression
